This passage reports GI50 and TGI results from PubChem BioAssay (NCI).

Some test systems named below: TK-10 renal; ACHN renal; SK-MEL-28 melanoma; HT29 colon; DU-145 prostate; U251 CNS; SK-MEL-5 melanoma; SF-295 CNS; COLO 205 colon; 786-0 renal.
Common to all, as to assay: DTP human tumour cell line panel, 48 h

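Method: 48-hour compound exposure of cells in 96-well plates, five concentrations, linear interpolation of endpoints. GI50: concentration for 50% inhibition of growth. TGI: total growth inhibition.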

One may read the GI50 as the concentration at which growth is held to half of that of the control. One may read the TGI as the concentration at which net growth stops. The low end stands for more potent growth arrest, the high end for less potent growth arrest. As to `Clc1ccc2c(NCCNc3nc(N4CCOCC4)nc4ccccc34)ccnc2c1`, the GI50 was 1.83 µM with TK-10 renal; 1.75 µM in the experiment on ACHN renal; 2.1 µM with SK-MEL-28 melanoma; 1.89 µM in the experiment on HT29 colon; 4.99 µM with DU-145 prostate; 1.71 µM in the experiment with U251 CNS. Besides, the GI50 is 1.75 µM in the experiment with SK-MEL-5 melanoma, 1.75 µM in the experiment with SF-295 CNS, 2.02 µM with COLO 205 colon and 1.79 µM in the experiment with 786-0 renal. Moreover, the TGI is 3.39 µM in the experiment on TK-10 renal; 3.49 µM in the experiment with ACHN renal; 4.12 µM with SK-MEL-28 melanoma; 3.56 µM in the experiment with HT29 colon; 17 µM in the experiment with DU-145 prostate; 3.4 µM with U251 CNS. Besides, the TGI with SK-MEL-5 melanoma stood at 3.15 µM; in the experiment with SF-295 CNS, 3.24 µM; with COLO 205 colon, 4.46 µM; in the experiment with 786-0 renal it was 4.95 µM.
Take `O=c1[nH]c2cc(Cl)ccc2nc1/C(=N\Nc1ccccc1)C(O)c1ccc2c(c1)OCO2` (stereo unspecified): the concentration for total growth inhibition (TGI) in the experiment with TK-10 renal, in the experiment on ACHN renal, in the experiment on SK-MEL-28 melanoma, in the experiment with HT29 colon, with DU-145 prostate and with U251 CNS was over 100 µM each time. Also, the TGI with SK-MEL-5 melanoma, with SF-295 CNS, in the experiment with COLO 205 colon and with 786-0 renal was over 100 µM each time.
Turning to `COc1ccc2nc3ccccc3c(NCCNCCO)c2c1`, the GI50 in the experiment with TK-10 renal is 0.716 µM; in the experiment on ACHN renal, 0.478 µM; with SK-MEL-28 melanoma, 1.19 µM; with HT29 colon, 0.378 µM; with DU-145 prostate it was 0.588 µM; in the experiment on U251 CNS, 0.479 µM. Moreover, the GI50 is 1.05 µM with SK-MEL-5 melanoma, 0.484 µM with SF-295 CNS, 0.397 µM in the experiment on COLO 205 colon and 0.649 µM with 786-0 renal. Besides, the TGI with TK-10 renal is 9.96 µM; with ACHN renal it was 21.1 µM; in the experiment with SK-MEL-28 melanoma, 3.08 µM; in the experiment on HT29 colon, 4.33 µM; in the experiment on DU-145 prostate it was 5.8 µM; in the experiment on U251 CNS, 4.35 µM. For the same compound, the TGI was 2.35 µM in the experiment on SK-MEL-5 melanoma, 2.62 µM in the experiment with SF-295 CNS, 1.77 µM in the experiment on COLO 205 colon and 7.55 µM in the experiment on 786-0 renal.
For `Clc1ccc(C=Nc2ccc(-c3nc4ccccc4[nH]3)cc2)cc1`, the GI50 in the experiment on TK-10 renal was over 100 µM; with ACHN renal it was over 100 µM; with SK-MEL-28 melanoma, over 100 µM; in the experiment on HT29 colon, over 100 µM; with DU-145 prostate it was over 100 µM; in the experiment on U251 CNS, 65.1 µM. For the same compound, the GI50 was 45 µM in the experiment with SK-MEL-5 melanoma, over 100 µM in the experiment with SF-295 CNS, over 100 µM in the experiment on COLO 205 colon and over 100 µM in the experiment on 786-0 renal. In addition, the TGI in the experiment on TK-10 renal, in the experiment on ACHN renal, in the experiment on SK-MEL-28 melanoma, in the experiment with HT29 colon, with DU-145 prostate and with U251 CNS was over 100 µM each time. Moreover, the TGI with SK-MEL-5 melanoma, with SF-295 CNS, in the experiment on COLO 205 colon and in the experiment on 786-0 renal was over 100 µM in each case.
In the case of `COc1cc(N=Nc2cc(Cc3ccc(N(C)C)cc3)c(N)cc2N(C)C)c2ncccc2c1`, the GI50 in the experiment with TK-10 renal was 1.62 µM; with ACHN renal, 0.233 µM; in the experiment with SK-MEL-28 melanoma, 0.745 µM; with HT29 colon, 0.0607 µM; with DU-145 prostate, 0.59 µM; in the experiment on U251 CNS, 0.466 µM. The GI50 in the experiment on SK-MEL-5 melanoma was 0.227 µM; with SF-295 CNS, 0.618 µM; in the experiment on COLO 205 colon it was 0.176 µM; with 786-0 renal, 1.01 µM. The TGI was 4.36 µM in the experiment with TK-10 renal; 1.69 µM with ACHN renal; 2.2 µM in the experiment with SK-MEL-28 melanoma; 2.4 µM in the experiment with HT29 colon; 2.17 µM in the experiment with DU-145 prostate; 1.94 µM in the experiment on U251 CNS. The TGI turned out to be 0.714 µM in the experiment with SK-MEL-5 melanoma, 2 µM in the experiment with SF-295 CNS, 1.21 µM in the experiment on COLO 205 colon and 2.25 µM in the experiment with 786-0 renal.
Regarding `COc1cccc(C2CC(=O)Nc3c2c(C)nn3-c2nc3ccccc3[nH]2)c1OC` (stereo unspecified), the GI50 with TK-10 renal is 6.8 µM; in the experiment on ACHN renal it was 3.98 µM; with SK-MEL-28 melanoma, 9.71 µM; in the experiment on HT29 colon it was 4.35 µM; with DU-145 prostate, 8.68 µM; in the experiment with U251 CNS, 3.63 µM. Moreover, the GI50 in the experiment with SK-MEL-5 melanoma is 2.2 µM; in the experiment on SF-295 CNS, 1.37 µM; in the experiment with COLO 205 colon it was 5.72 µM; in the experiment with 786-0 renal, 5.51 µM. The TGI in the experiment with TK-10 renal is over 100 µM; in the experiment on ACHN renal, over 90.9 µM; in the experiment with SK-MEL-28 melanoma, over 87 µM; in the experiment with HT29 colon, over 47.6 µM; with DU-145 prostate, over 89.4 µM; with U251 CNS it was 20.3 µM. The TGI came out at 5.74 µM in the experiment with SK-MEL-5 melanoma, 3.78 µM with SF-295 CNS, 20.1 µM in the experiment with COLO 205 colon and 65 µM in the experiment with 786-0 renal.
As for `CC1(C)CC(O)CC(C)(C)N1O`, the TGI with TK-10 renal, in the experiment with ACHN renal, in the experiment on SK-MEL-28 melanoma, in the experiment on HT29 colon, in the experiment with DU-145 prostate and with U251 CNS was over 100 µM throughout. In addition, the TGI in the experiment on SK-MEL-5 melanoma, in the experiment with SF-295 CNS, with COLO 205 colon and in the experiment on 786-0 renal was over 100 µM throughout. Besides, the GI50 with U251 CNS was over 100 µM.
`CCCCCCCCCCCCCCCCCc1nc(Cl)nc(Cl)c1Cl`: the TGI with TK-10 renal, in the experiment on ACHN renal, with SK-MEL-28 melanoma, in the experiment on HT29 colon, in the experiment with DU-145 prostate and in the experiment on U251 CNS was over 100 µM each time. The TGI was 50.7 µM in the experiment on SK-MEL-5 melanoma, over 100 µM in the experiment on SF-295 CNS, over 100 µM in the experiment with COLO 205 colon and over 100 µM with 786-0 renal.
For the compound `Nc1ncn([C@H]2CC(O)[C@@H](CO)S2)c(=O)n1` (stereo partly specified), the GI50 in the experiment on TK-10 renal is 36.3 µM; in the experiment with ACHN renal, 0.266 µM; in the experiment with SK-MEL-28 melanoma, 2.05 µM; in the experiment on HT29 colon it was 1.25 µM; in the experiment with DU-145 prostate, 2.27 µM; with U251 CNS, 12.7 µM. The GI50 in the experiment on SK-MEL-5 melanoma is 1.17 µM; in the experiment on SF-295 CNS, 35.5 µM; with COLO 205 colon, 0.839 µM; in the experiment with 786-0 renal, 13.9 µM. For the same compound, the TGI with TK-10 renal, in the experiment on ACHN renal, in the experiment on SK-MEL-28 melanoma, in the experiment on HT29 colon, in the experiment on DU-145 prostate and in the experiment with U251 CNS was over 100 µM each time. Also, the TGI with SK-MEL-5 melanoma, with SF-295 CNS, in the experiment on COLO 205 colon and with 786-0 renal was over 100 µM each time.
